Measurements from US20110071124A1, “Compounds that Inhibit Production of sAPPB and AB and Uses Thereof” (The Trustees of Columbia University in the City of New York, priority 2008, published 2011).

Tests used:
[1] = target: T1, purified recombinant β-secretase (BACE1) (Homo sapiens, UniProt P56817); assay: BACE1 FRET enzymatic assay (Invitrogen); format: biochemical; settings: for dose-dependent inhibition of β-secretase: 3 concentrations (0.1, 1, and 10 μM); for IC50: 12 doses, read-out: enzymatic IC50 (FRET-based BACE1 assay)
T1 construct: purchased Invitrogen
T1 sequence (P56817 46-501): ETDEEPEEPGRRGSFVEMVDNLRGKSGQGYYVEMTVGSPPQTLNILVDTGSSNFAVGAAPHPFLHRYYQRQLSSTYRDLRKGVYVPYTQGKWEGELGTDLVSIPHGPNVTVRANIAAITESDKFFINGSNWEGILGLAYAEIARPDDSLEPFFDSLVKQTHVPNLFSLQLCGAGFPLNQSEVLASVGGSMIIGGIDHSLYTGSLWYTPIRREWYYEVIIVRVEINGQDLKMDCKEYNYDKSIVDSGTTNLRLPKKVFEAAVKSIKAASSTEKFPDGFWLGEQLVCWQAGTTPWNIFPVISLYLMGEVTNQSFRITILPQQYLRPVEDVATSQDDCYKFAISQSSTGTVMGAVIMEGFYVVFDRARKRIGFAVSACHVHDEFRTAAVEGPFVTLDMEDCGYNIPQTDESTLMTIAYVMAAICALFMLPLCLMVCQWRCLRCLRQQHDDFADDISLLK
Text: FIG. 10. 4 compounds reduce BACE1 activity in an enzymatic assay. To further classify the small molecule hits, a FRET-based BACE1 enzymatic assay (Invitrogen) was used to identify potential direct BACE1 inhibitors.
In other non-limiting embodiments, the effective amount of at least one compound of Formulas I-VII, and/or a compound depicted in FIG. 19, may be correlated with the compound's ability to inhibit the enzymatic activity of a BACE1 enzyme. The compound's BACE1 inhibitory effect may be assayed, for example, through use of a BACE1 FRET Assay kit (Invitrogen Corp., Carlsbad, Calif., U.S.A.), wherein the fluorescence resonance energy transfer (FRET)-based assay measures the cleavage by purified recombinant β-secretase of a peptide substrate corresponding to the BACE1 cleavage site of Swedish mutant APP. In such an assay, a greater reduction in fluorescence in the reaction mixture following incubation with a compound of the invention compared to a control cell line not contacted with the compound is correlative with the compound's therapeutic efficacy.
Because the cell-based BACE1 assay has the potential to uncover direct as well as indirect inhibitors of β-secretase, a commercial BACE1 enzymatic assay was employed to classify the small molecule hits. The BACE1 FRET Assay kit was purchased from Invitrogen and used according to the manufacturer's protocol. This fluorescence resonance energy transfer (FRET)-based assay measures the cleavage by purified recombinant β-secretase of a peptide substrate corresponding to the BACE1 cleavage site of Swedish mutant APP. The 15 LDDN hits were first tested at 3 concentrations (0.1, 1, and 10 μM) to determine if there is a dose-dependent inhibition of β-secretase.

[2] = fluorescent readout interference: BACE1 substrate standard (cleaved peptide) without BACE1 enzyme; settings: highest of 12 concentrations
Description: Because the enzymatic assay is performed with compound in the reaction mixture (in contrast to the cell-based BACE1 assay, where the compound is washed away after antibody-mediated specific capture of sAPPβ), it is conceivable that the compound itself may interfere with the fluorescent readout of the enzymatic BACE1 assay. To explore this possibility, BACE1 substrate standard (cleaved peptide, supplied in the assay kit) was incubated with 12 concentrations of LDN-0040630, LDN-0089308, LDN-0096529, and LDN-0091841 in the absence of BACE1 enzyme.

[3] = system: sAPPβ (BACE1 cleavage of SEAP-APPwt) in SY5Y-BACEGFP-SEAPAPPwt cells; assay: cell-based BACE1 assay (sAPPβ modified ELISA); settings: for IC50: 12 concentrations 0.1 nM to 30 μM, 96-well format (FIG. 8), read-out: cell-based IC50 (sAPPβ), 12-point dose-response
Description: FIG. 1. An sAPPβ assay utilized to identify inhibitors of BACE1. The assay utilizes SY5Y cells stably overexpressing BACE-GFP and SEAP-APPwt. Cells are incubated with a candidate compound for 6 hours prior to harvesting media. BACE1-mediated cleavage of APP results in the release of sAPPβ into the media. α-secretase, a competing enzyme that is non-amyloidogenic, also cleaves APP to release […]. Using an sAPPβ-specific antibody (sβwt), SEAP-sAPPβ is specifically captured in a modified ELISA assay. Detection is achieved by addition of the fluorescent alkaline phosphatase substrate, 4-methylumbelliferyl phosphate (4-MUP).
FIG. 13. […] Compounds were tested in SY5Y-BACEGFP-SEAPAPPwt cells using the cell-based BACE1 assay. Select compounds were also investigated for Aβ-lowering effect using a commercial Aβ ELISA kit (BioSource). All compounds were tested at 8 concentrations (30, 10, 3, 1, 0.3, 0.1, 0.03, and 0.01 μM), and data points were analyzed with Origin software and fitted using a logistic model for IC50 determination.
As described in the Examples below, and depicted in FIG. 1, an sAPPβ ELISA assay may comprise cells, for example, SY5Y cells, transfected with a BACE1 reporter construct, such as a GFP-tagged BACE1 (BACE-GFP), and a wild type APP reporter construct, such as a secreted alkaline phosphatase (SEAP)-tagged wild type APP (SEAP-APPwt). BACE1 cleavage of the reporter-tagged APP (e.g. SEAP-APPwt) may result in secretion into the media of SEAP-tagged sAPPβ, which may be collected and specifically captured using an sAPPβ cleavage site-specific antibody (e.g. stβwt). Following washing, a substrate may be used, for example, the fluorescent alkaline phosphatase substrate 4-methylumbelliferyl phosphate (4-MUP), to detect the captured SEAP-sAPPβ.
A cell-based modified ELISA assay for measuring sAPPβ, the secreted ectodomain of β-amyloid precursor protein (APP) following β-secretase (BACE1) cleavage, was used to identify a class of compounds that interfered with the first step of sAPPβ generation. This assay has been described in International Application PCT/US2007/015938 (Published as International Publication No. WO 08/008463), which is herein incorporated in its entirety for all purposes.
The SY5Y-BACEGFP-SEAPAPPwt cell based assay was developed to discover novel small molecule modulators of BACE1 activity. SY5Y cells were stably transfected with GFP-tagged BACE1 (BACE-GFP) and secreted alkaline phosphatase (SEAP)-tagged wildtype APP (SEAP-APPwt). BACE1 cleavage of SEAP-APPwt results in secretion into the media of SEAP-tagged sAPPβ, which is collected and specifically captured using an sAPP0 cleavage site-specific antibody (sβwt). After washing, the fluorescent alkaline phosphatase substrate 4-methylumbelliferyl phosphate (4-MUP) is used to detect the captured SEAP-sAPPβ (FIG. 1).
The 15 LDDN compounds selected based on their 3-point dose-response profile were tested at 12 concentrations (ranging from 0.1 nM to 30 μM) in the cell-based BACE1 assay. The assay was conducted in 96-well format to maximize the Z′ factor. Compounds were characterized in duplicate cell plates, each containing 12 doses of compound in triplicate. Cell viability was measured at 6 and 24 hours using Promega's Cell Titer-Glo kit according to the manufacturer's protocol. The dose-response curves for sAPPβ reduction were plotted using Origin software and fitted using a logistic model for IC50 determination.
27 structural analogs of LDN-0057228 were synthesized and tested using the cell-based BACE1 assay in SY5Y-BACEGFP-SEAPAPPwt cells (FIG. 13). 4 analogs, in addition to the parent compound, were also assessed for Aβ40 lowering activity using a commercial Aβ kit (BioSource). Because LDN-0057228 resembles CNS monoamine transporter inhibitors, this analog series was given the designation “CNS.” LDN-0057228 gave an unexpectedly low potency (IC50˜20 μM for both sAPPβ and Aβ40 reduction) compared to the ˜7 μM potency obtained using the same compound in FIG. 8.

[4] = system: SY5Y-BACEGFP-SEAPAPPwt cells; settings: tagged-triazine hits, 10 μM
Description: Of the 147 hits selected during the primary screen, 139 were retested in a 3-point dose-response (10, 2, 0.2 μM) confirmatory screen. BACE1 assay was performed as described, and cell viability was determined by Cell Titer AQeous One cell proliferation assay (Promega). Representative data from four compounds are shown. Data points represent mean±s.d. of four determinations.
The primary screen for the nearly 3,000-compound tagged-triazine library was conducted in 96-well format by hand. Compounds were supplied in powder form in 96-well polypropylene plates. The compounds were first dissolved in DMSO to generate 10 mM stock plates, then stamped onto new polypropylene plates to make 1 mM working stock solution. For assay, 1 mM working stock solution was diluted 1:100 into cell culture media for a final concentration of 10 μM. […] Negative (DMSO) and positive (BACE inhibitor IV at 10 μM) controls were included on every screening plate in triplicate for quality control and calculation of Z′ factors.
The 144 hits from the primary screen were rescreened in triplicate at 10 μM to confirm the activity and to assess cytotoxicity.
Of the 147 hits from the primary screen, 139 were retested for 3-point dose-response at 10, 2, and 0.2 μM concentrations in quadruplicate. […] The compounds were simultaneously evaluated for cytotoxicity using the Cell Titer AQueous One cell proliferation assay (Promega). […]

[5] = 10 μM, triplicate rescreen of tagged-triazine hits

Row | SMILES | dose-dependent inhibition of β-secretase [1] | IC50 [1] | maximal inhibition of the fluorescence signal in the absence of BACE1 enzyme [2] | IC50 [3] | effect on cell viability [4] | inhibition of sAPPβ [3, 5] | increase in sAPPβ [3, 5]
1 | COc1ccccc1C(=O)Nc1nc2ccccc2n1CCOc1ccccc1 [LDN-0091841] | exhibited a dose-dependent effect | 5150 nM | 25% | 2610 nM |  |  | 
2 | NCCOCCOCCNc1nc(N2CCCC2)nc(N2CCN(c3ccc([N+](=O)[O-])cc3)CC2)n1 [TG-CD-D7] |  |  |  |  | did not affect cell viability | 43% | 
3 | Oc1cc(-c2ccccc2)nn1-c1nc2ccccc2[nH]1 [LDN-0089308] | exhibited a dose-dependent effect | 2140 nM | 25% | 3050 nM |  |  | 
4 | NCCOCCOCCNC(=O)c1ccc(CNc2nc(NCC3CCCCC3)nc(N3CCCCC3)n2)cc1 [AM-D-E4] |  |  |  |  | did not affect cell viability |  | 36%
